Data taken from patent publication US20240158370A1, “CK1 alpha AND DUAL CK1 alpha / GSPT1 DEGRADING COMPOUNDS” (Innovo Therapeutics, Inc., priority 2022, published 2024).

Tests used:
Format in all cases: cell-based
[1] = biological target: T1, CK1α (Homo sapiens, UniProt P48729+Q96SW2); assay: HiBiT degradation assay, CK1α, Procedure A; conditions: six hours
T1 construct: CSNK1A1-HiBit KI HEK293(LgBit) Cells; host or cells: HEK293(LgBit) knock-in cells
How it was run: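 Six-hour treatment at 37° C, ten doses between 10 μM and 0.005 μM, then HiBiT lytic luminescence. Fitted DC50 and Ymin.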

[2] = system: Z-138 cells; assay: Z-138 Proliferation Assay (Cell Titer-Glo); conditions: 72 hours; for Ymin (%): % remaining (percent of DMSO control); for EC50: Homo sapiens, Cell Titer-Glo, 4-parameter curve fit
How it was run: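 Z-138 cells (4,000 cells/well, IMDM + 10% FBS) exposed 72 h to 10-point 1:2 compound dilutions from 10,000 nM top, 0.1% DMSO. Viability read by CellTiter-Glo luminescence; EC50 from 4-parameter fit of percent of DMSO control.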

[3] = biological target: GSPT1 (Homo sapiens, UniProt P15170+Q96SW2); assay: HiBiT degradation assay, GSPT1, Procedure B (Molt 4_hGSPT1_HiBIT cells); parameters: Molt 4_hGSPT1_HiBIT N-terminus tagged cells were generated using CRISPR technology; endogenous in cells; host or cells: Molt 4 cells, CRISPR-edited; conditions: six hours
GSPT1, sequence (P15170 whole entry): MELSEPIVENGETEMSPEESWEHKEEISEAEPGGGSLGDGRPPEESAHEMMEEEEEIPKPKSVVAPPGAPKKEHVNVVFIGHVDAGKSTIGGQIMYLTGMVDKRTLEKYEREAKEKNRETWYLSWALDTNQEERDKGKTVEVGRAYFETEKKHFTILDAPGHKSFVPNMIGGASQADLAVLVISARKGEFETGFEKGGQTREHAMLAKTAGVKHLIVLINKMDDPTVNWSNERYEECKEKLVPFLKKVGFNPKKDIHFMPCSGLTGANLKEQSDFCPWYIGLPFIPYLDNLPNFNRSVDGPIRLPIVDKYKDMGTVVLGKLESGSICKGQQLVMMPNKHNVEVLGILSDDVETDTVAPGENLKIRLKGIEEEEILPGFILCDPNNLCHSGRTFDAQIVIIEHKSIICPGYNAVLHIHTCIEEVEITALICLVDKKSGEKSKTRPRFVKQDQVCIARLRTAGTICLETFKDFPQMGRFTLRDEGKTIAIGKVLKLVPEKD
GSPT1, sequence (Q96SW2 whole entry): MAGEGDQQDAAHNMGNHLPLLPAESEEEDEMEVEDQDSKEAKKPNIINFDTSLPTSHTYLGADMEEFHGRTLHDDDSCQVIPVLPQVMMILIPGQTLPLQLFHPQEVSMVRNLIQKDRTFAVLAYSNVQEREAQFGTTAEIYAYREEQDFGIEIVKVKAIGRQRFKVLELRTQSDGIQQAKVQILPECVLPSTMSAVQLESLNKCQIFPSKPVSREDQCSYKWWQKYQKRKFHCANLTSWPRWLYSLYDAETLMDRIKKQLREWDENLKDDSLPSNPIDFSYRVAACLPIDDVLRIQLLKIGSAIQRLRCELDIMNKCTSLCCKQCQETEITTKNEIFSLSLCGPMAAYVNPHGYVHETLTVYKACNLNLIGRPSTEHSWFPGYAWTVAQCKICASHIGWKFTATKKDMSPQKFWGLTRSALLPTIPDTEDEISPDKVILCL
GSPT1, sequence (Q16531 whole entry partner): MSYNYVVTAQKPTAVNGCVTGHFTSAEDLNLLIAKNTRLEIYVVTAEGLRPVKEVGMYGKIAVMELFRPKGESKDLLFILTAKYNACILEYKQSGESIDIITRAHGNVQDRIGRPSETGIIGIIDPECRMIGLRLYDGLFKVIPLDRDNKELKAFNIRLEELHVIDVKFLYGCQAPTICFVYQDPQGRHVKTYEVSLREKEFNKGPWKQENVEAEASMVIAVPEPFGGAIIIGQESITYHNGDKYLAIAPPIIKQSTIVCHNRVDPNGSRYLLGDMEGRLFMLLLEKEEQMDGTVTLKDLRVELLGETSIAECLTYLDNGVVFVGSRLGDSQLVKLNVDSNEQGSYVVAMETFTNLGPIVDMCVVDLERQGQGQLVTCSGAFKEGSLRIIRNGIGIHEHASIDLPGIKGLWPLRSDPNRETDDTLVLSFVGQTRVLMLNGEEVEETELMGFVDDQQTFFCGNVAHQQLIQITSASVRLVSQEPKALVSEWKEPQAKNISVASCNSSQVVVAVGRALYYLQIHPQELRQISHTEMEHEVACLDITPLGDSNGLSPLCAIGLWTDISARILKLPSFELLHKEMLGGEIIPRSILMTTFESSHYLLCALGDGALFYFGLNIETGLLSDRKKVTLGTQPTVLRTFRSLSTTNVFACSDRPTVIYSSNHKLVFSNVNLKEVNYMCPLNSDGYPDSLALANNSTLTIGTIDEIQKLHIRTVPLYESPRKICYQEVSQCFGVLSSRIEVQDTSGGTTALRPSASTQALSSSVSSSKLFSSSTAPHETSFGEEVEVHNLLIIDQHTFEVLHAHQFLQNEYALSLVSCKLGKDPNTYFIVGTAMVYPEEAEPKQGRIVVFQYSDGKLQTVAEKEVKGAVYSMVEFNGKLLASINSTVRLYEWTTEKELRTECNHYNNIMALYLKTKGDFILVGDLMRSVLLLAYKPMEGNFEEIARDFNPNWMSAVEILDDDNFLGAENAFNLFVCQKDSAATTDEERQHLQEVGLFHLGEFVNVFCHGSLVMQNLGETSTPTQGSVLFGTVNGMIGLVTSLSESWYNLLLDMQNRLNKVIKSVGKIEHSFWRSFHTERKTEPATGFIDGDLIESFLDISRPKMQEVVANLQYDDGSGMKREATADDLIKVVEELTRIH
How it was run: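 CRISPR N-terminal HiBiT-tagged Molt 4 cells at 1×10^6 cells/ml were treated 6 h at 37° C with compounds (10-point, 10 μM to 0.005 μM, 0.1% DMSO). Remaining HiBiT-GSPT1 was read by lytic luminescence; DC50 and Ymin (% remaining) from a 4-parameter fit.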

T1 sequence (P48729 whole entry): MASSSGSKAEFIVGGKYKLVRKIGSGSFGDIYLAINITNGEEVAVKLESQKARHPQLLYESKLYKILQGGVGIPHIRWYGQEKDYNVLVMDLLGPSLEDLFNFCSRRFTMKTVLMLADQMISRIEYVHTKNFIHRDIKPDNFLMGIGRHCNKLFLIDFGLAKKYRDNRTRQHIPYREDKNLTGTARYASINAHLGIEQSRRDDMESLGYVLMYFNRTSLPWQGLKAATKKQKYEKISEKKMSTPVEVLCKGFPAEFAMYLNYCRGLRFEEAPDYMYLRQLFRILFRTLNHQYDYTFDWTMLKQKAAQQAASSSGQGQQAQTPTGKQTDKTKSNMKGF
T1 sequence (Q96SW2 whole entry): as the sequence (Q96SW2 whole entry) above
T1 sequence (Q16531 whole entry partner): as the sequence (Q16531 whole entry partner) above

Structure (SMILES)	CK1α Ymin [1]	DC50 [1]	Ymin (%) [2]	EC50 [2]	DC50 [3]	GSPT1 Ymin [3]
CC(C)c1cn(-c2ccccc2)c(-c2ccc3c(c2)CN(C2CCC(=O)NC2=O)C3=O)n1 (stereo not drawn) [Example 731, 3-(5-(4-isopropyl-1-phenyl-1H-imidazol-2-yl)-1-oxoisoindolin-2-yl)piperidine-2,6-dione]	C (C = 0-10% remaining)	< 25 nM	D (0-10% remaining)	< 10 nM	< 25 nM	E (E = >25-75% remaining)
CC(C)Cc1nc(-c2ccc3c(c2)CN(C2CCC(=O)NC2=O)C3=O)c(-c2ccccc2)o1 (stereo not drawn) [Example 732, 3-(5-(2-isobutyl-5-phenyloxazol-4-yl)-1-oxoisoindolin-2-yl)piperidine-2,6-dione]	C (C = 0-10% remaining)	< 25 nM	D (0-10% remaining)	< 10 nM	< 25 nM	F (F = >75-100% remaining)
CC(C)c1nc(-c2ccc3c(c2)CN(C2CCC(=O)NC2=O)C3=O)c(-c2ccccc2)o1 (stereo not drawn) [Example 733, 3-(5-(2-isopropyl-5-phenyloxazol-4-yl)-1-oxoisoindolin-2-yl)piperidine-2,6-dione]	C (C = 0-10% remaining)	< 25 nM	D (0-10% remaining)	< 10 nM	≥ 25 nM	F (F = >75-100% remaining)
